Source: patent US9945862B2, “Biomarkers for predicting and assessing responsiveness of thyroid and kidney cancer subjects to lenvatinib compounds” (Eisai R&D Management Co., Ltd., priority 2011, dated 2018)
“Also recorded” adds a separate entry of the source.

System: differentiated thyroid cancer patients
Assay: Progression free survival of E7080-treated DTC patients (Logrank test, Cox proportional hazards model with or without PK covariate)
Assay type: in vivo, human
Conditions: patients with mutations in NRAS alone or in either NRAS or KRAS vs wild type for NRAS or KRAS
Procedure: The period during which a patient takes E7080 was artificially divided into different Cycles for ease of evaluation and tracking. Patients received E7080 at a dose of 24 mg oral once daily in 28 day cycles. For analysis purposes, assessments of clinical outcomes were performed at the time of the 9 month and at 14 month minimum follow-up. For the E7080 Thyroid Cancer trial, each Cycle is 28 days (4 weeks) so Day 1-28 is cycle 1; Day 29 is Day 1 of Cycle 2; and Day 57 is Day 1 of Cycle 3. Blood samples were collected for pharmacokinetic (PK) analysis on Cycle 1 Days 1 and 8, Cycle 2 Day 1, and Cycle 3 Day 1. A total of 9 samples per patient were collected as follows: Cycle 1 Day 1: immediately prior to the dose of E7080, and at 0.5 and 2 hours following the first dose of E7080 (post-dose); Cycle 1 Day 8: immediately prior to the dose of E7080; Cycle 2 Day 1: immediately prior to the dose of E7080, 0.5 and 2 hours post-dose; Cycle 3 Day 1: immediately prior to the dose of E7080 and 2 hours post-dose. For analysis of progression free survival, PK parameter was used as a covariate in Cox proportional hazards model. […]
The association of gene mutations with progression free survival of treated patients was analyzed first by performing Logrank test and then using Cox proportional hazards model with or without covariates. […]

COc1cc2nccc(Oc3ccc(NC(=O)NC4CC4)c(Cl)c3)c2cc1C(N)=O [E7080, 4-(3-chloro-4-(cyclopropylaminocarbonyl)aminophenoxy)-7-methoxy-6-quinolinecarboxamide]
Progression free survival, Logrank test: better progression free survival; also recorded: better PFS
